Experimental data published in patent US10562869B2, “Oxadiazole compounds” (REMYND NV, priority 2014, dated 2020).

The compounds below were run on M17_3SYN cells (assay: Paraquat-induced cytotoxicity (LDH) in α-synuclein over-expressing M17_3SYN neuroblastoma cells). Conditions: Homo sapiens, Neuroblastoma cell, 48 h, toxicity inhibition (LDH) in M17_3SYN cells challenged with 6 mM paraquat, 2 days; read-out: SYN EC50.
Assay type: cell-based, human
Source text: A α-synuclein expression plasmid was constructed by subcloning the NcoI/XhoI fragment from 212T-SYN(WT) (Griffioen et al., Biochem Biophys Acta (2006) 1762(3):312-318) containing the cDNA of human wild type α-synuclein correspondingly into a standard mammalian expression vector pcDNA3.1 resulting in plasmid pcDNA3.1-SYNwt. Plasmids pcDNA3.1 and pcDNA3.1-SYNwt were transfected into human neuroblastoma cells (BE-M17; ATCC No. CRL-2267™) using lipofectamine reagent and subsequently, independent clonal cell lines with the plasmids stably integrated into the genome were selected by antibiotic resistance selection (Geneticin (G418)), resulting in cell lines M17.pcDNA3 and M17_3SYN. Overexpression of α-synuclein in the M17_3SYN cell line was confirmed by Western blot analysis.
Due to the high levels of α-synuclein, M17_3SYN cells were sensitive to paraquat, a well-known risk factor Parkinson's disease and of synuclein-dependent neuronal degeneration. Cytotoxicity of cells was measured by quantification of lactate dehydrogenase (LDH) levels. In dead cells, LDH leaked out of the cells into the medium due to a loss of plasma-membrane integrity.
[…], primary pre-cultures of M17.pcDNA3 (as possible control) and M17_3SYN cells were prepared, starting from a stock culture, at a density of 20.000-40.000 cells/cm2 in culture medium (Opti-MEM® Reduced Serum Medium with Phenol Red (Invitrogen, Cat. 31985-047) supplemented with 10% FCS, 1 mM sodium pyruvate, 1×NEAA, 500 μg/ml G418 and 0.5×antibiotic/antimycotic (ABAM)). 3 days later these primary pre-cultures were used as a starting point to make secondary pre-cultures at a density of 50.000-100.000 cells/cm^2. At the day of the experiment these secondary precultures were diluted to ˜0.5·10^6 cells/ml in detection medium (Opti-MEM® Reduced-Serum Medium without Phenol Red (Invitrogen, Cat. 11085-021) supplemented with 10% FCS, 1 mM sodium pyruvate, 1×NEAA, 500 μg/ml G418 and 0.5×ABAM) and 60 μL of this suspension was dispensed per well into a 96-well microtiter plate. After 3 hours of incubation at 37° C./5% CO2 an equal volume of detection medium containing a final concentration of 6 mM Paraquat was added and subsequently incubated for 2 days at 37° C./5% CO2. Then LDH activity was determined using the Promega Cytotox 96 Non-Radioactive cytotoxicity assay (Promega, Cat. G1780), according to the manufacturer's instructions. Cytotoxicity was defined as the ratio of LDH relative to the total LDH in the cells and supernatant.
The assay described above using the M17_3SYN cell line allowed screening compounds for their ability to decrease cytotoxicity in PQ-challenged cells. Compounds of the invention were tested for their ability to decrease toxicity at different concentrations, ranging from low non-effective concentrations to high effective concentrations. Afterwards, a dose-dependent inhibition curve was used to calculate the EC50. A compound was considered to be active in this test when it inhibited toxicity by more than 20% relative to untreated M17_3SYN cells at a concentration of 10 μM or lower.
`CCOc1ccc(S(=O)(=O)N2CCN(c3nc(Cc4ccc(Cl)cc4)no3)CC2)cc1` [Cmpd053, 1-[3-(4-Chloro-benzyl)-[1,2,4]oxadiazol-5-yl]-4-(4-ethoxy-benzenesulfonyl)-piperazine] gave an EC50 of 31 nM. `CCOc1ccc(S(=O)(=O)N2CCN(c3nc(C(F)(F)c4ccc(F)cc4)no3)CC2)cc1` [Cmpd147, 1-{3-[Difluoro-(4-fluoro-phenyl)-methyl]-[1,2,4]oxadiazol-5-yl}-4-(4-ethoxy-benzenesulfonyl)-piperazine] showed an EC50 of 22 nM. `O=S(=O)(c1ccc(F)cc1)N1CCN(c2nc(Cc3cccc(F)c3)no2)CC1` [Cmpd085, 1-(4-Fluoro-benzenesulfonyl)-4-[3-(3-fluoro-benzyl)-[1,2,4]oxadiazol-5-yl]-piperazine] showed an EC50 of 250 nM. Work on `CCOc1ccc(S(=O)(=O)N2CCN(c3nc(Cc4ccc(F)c(F)c4)no3)CC2)cc1` [Cmpd100, 1-[3-(3,4-Difluoro-benzyl)-[1,2,4]oxadiazol-5-yl]-4-(4-ethoxy-benzenesulfonyl)-piperazine] yielded an EC50 of 130 nM. `COc1ccc(S(=O)(=O)N2CCN(c3nc(CC4CC4)no3)CC2)cc1` [Cmpd159, 3-(Cyclopropylmethyl)-5-(4-((4-methoxyphenyl)sulfonyl)piperazin-1-yl)-1,2,4-oxadiazole] gave an EC50 of 95 nM. Compound `COc1ccc(S(=O)(=O)N2CCN(c3nc(Cc4ccc(F)c(F)c4)no3)CC2)cc1` [Cmpd099, 1-[3-(3,4-Difluoro-benzyl)-[1,2,4]oxadiazol-5-yl]-4-(4-methoxy-benzenesulfonyl)-piperazine] has an EC50 of 16 nM. Work on `O=S(=O)(c1ccc2c(c1)CCO2)N1CCN(c2nc(Cc3cccc(F)c3)no2)CC1` [Cmpd095, 1-(2,3-Dihydro-benzofuran-5-sulfonyl)-4-[3-(3-fluoro-benzyl)-[1,2,4]oxadiazol-5-yl]-piperazine] yielded an EC50 of 89 nM. In the case of `O=S(=O)(c1ccc(OC(F)F)cc1)N1CCN(c2nc(Cc3cccc(F)c3)no2)CC1` [Cmpd092, 1-(4-Difluoromethoxy-benzenesulfonyl)-4-[3-(3-fluoro-benzyl)-[1,2,4]oxadiazol-5-yl]-piperazine], the EC50 is reported as 47 nM. `O=S(=O)(c1cccc(C(F)(F)F)c1)N1CCN(c2nc(Cc3cccc(F)c3)no2)CC1` [Cmpd088, 1-[3-(3-Fluoro-benzyl)-[1,2,4]oxadiazol-5-yl]-4-(3-trifluoromethyl-benzenesulfonyl)-piperazine] was tested, and the EC50 was 1840 nM. In the case of `O=S(=O)(c1ccc(OC(F)F)cc1)N1CCN(c2nc(Cc3ccccc3)no2)CC1` [Cmpd039, 1-(3-Benzyl-[1,2,4]oxadiazol-5-yl)-4-(4-difluoromethoxy-benzenesulfonyl)-piperazine], the EC50 is reported as 11 nM. `CC(=O)Nc1ccc(S(=O)(=O)N2CCN(c3nc(Cc4cccc(F)c4)no3)CC2)cc1` [Cmpd086, N-(4-{4-[3-(3-Fluoro-benzyl)-[1,2,4]oxadiazol-5-yl]-piperazine-1-sulfonyl}-phenyl)-acetamide] gave an EC50 of 522 nM. For `COc1ccc(S(=O)(=O)N2CCN(c3nc(COc4cccnc4)no3)CC2)cc1` [Cmpd204, 5-(4-((4-Methoxyphenyl)sulfonyl)piperazin-1-yl)-3-((pyridin-3-yloxy)methyl)-1,2,4-oxadiazole], the EC50 was 65 nM. `COc1ccc(S(=O)(=O)N2CCN(c3nc(Cc4ccnc(C)c4)no3)CC2)cc1` [Cmpd169, 1-(4-Methoxy-benzenesulfonyl)-4-[3-(2-methyl-pyridin-4-ylmethyl)-[1,2,4]oxadiazol-5-yl]-piperazine] gave an EC50 of 34 nM. `COc1ccc(S(=O)(=O)N2CCN(c3nc(C(F)(F)c4ccc(Cl)cc4)no3)CC2)cc1` [Cmpd142, 1-{3-[(4-Chloro-phenyl)-difluoro-methyl]-[1,2,4]oxadiazol-5-yl}-4-(4-methoxy-benzenesulfonyl)-piperazine] was tested, and the EC50 was 24 nM. `COc1ccc(S(=O)(=O)N2CCN(c3nc(Cc4cccc(Cl)c4)no3)CC2)cc1` [Cmpd072, 1-[3-(3-Chloro-benzyl)-[1,2,4]oxadiazol-5-yl]-4-(4-methoxy-benzenesulfonyl)-piperazine] was tested, and the EC50 was 3 nM. Compound `CC(C)Oc1ccc(S(=O)(=O)N2CCN(c3nc(Cc4cccc(F)c4)no3)CC2)cc1` [Cmpd093, 1-[3-(3-Fluoro-benzyl)-[1,2,4]oxadiazol-5-yl]-4-(4-isopropoxy-benzenesulfonyl)-piperazine] has an EC50 of 326 nM. `CCOc1ccc(S(=O)(=O)N2CCN(c3nc(Cc4cccc(Cl)c4)no3)CC2)cc1` [Cmpd073, 1-[3-(3-Chloro-benzyl)-[1,2,4]oxadiazol-5-yl]-4-(4-ethoxy-benzenesulfonyl)-piperazine] gave an EC50 of 33 nM. `CC(C)(c1cccc(Cl)c1)c1noc(N2CCN(S(=O)(=O)c3ccc(OC(F)F)cc3)CC2)n1` [Cmpd154, 1-{3-[1-(3-Chloro-phenyl)-1-methyl-ethyl]-[1,2,4]oxadiazol-5-yl}-4-(4-difluoromethoxy-benzenesulfonyl)-piperazine] was tested, and the EC50 was 7 nM. `CCCCc1noc(N2CCN(S(=O)(=O)c3ccc(OC)cc3)CC2)n1` [Cmpd208, 3-Butyl-5-(4-((4-methoxyphenyl)sulfonyl)piperazin-1-yl)-1,2,4-oxadiazole] was tested, and the EC50 was 98 nM. `O=S(=O)(c1ccc(OC(F)F)cc1)N1CCN(c2nc(C(F)(F)c3ccc(Cl)cc3)no2)CC1` [Cmpd144, 1-{3-[(4-Chloro-phenyl)-difluoro-methyl]-[1,2,4]oxadiazol-5-yl}-4-(4-difluoromethoxy-benzenesulfonyl)-piperazine] showed an EC50 of 145 nM. Work on `CCOc1ccc(S(=O)(=O)N2CCN(c3nc(C(C)(C)c4cccc(Cl)c4)no3)CC2)cc1` [Cmpd153, 1-{3-[1-(3-Chloro-phenyl)-1-methyl-ethyl]-[1,2,4]oxadiazol-5-yl}-4-(4-ethoxy-benzenesulfonyl)-piperazine] yielded an EC50 of 5 nM. `CSc1ccc(S(=O)(=O)N2CCN(c3nc(CC(F)(F)F)no3)CC2)cc1` [Cmpd168, 5-(4-((4-(Methylthio)phenyl)sulfonyl)piperazin-1-yl)-3-(2,2,2-trifluoroethyl)-1,2,4-oxadiazole] was tested, and the EC50 was 198 nM. In the case of `COc1ccc(S(=O)(=O)N2CCN(c3nc(C4(c5ccc(Cl)cc5)CC4)no3)CC2)cc1` [Cmpd138, 1-{3-[1-(4-Chloro-phenyl)-cyclopropyl]-[1,2,4]oxadiazol-5-yl}-4-(4-methoxy-benzenesulfonyl)-piperazine], the EC50 is reported as 39 nM. `O=S(=O)(c1ccc(OC(F)F)cc1)N1CCN(c2nc(C(F)(F)c3ccccc3)no2)CC1` [Cmpd158, 1-(4-Difluoromethoxy-benzenesulfonyl)-4-[3-(difluoro-phenyl-methyl)-[1,2,4]oxadiazol-5-yl]-piperazine] gave an EC50 of 31 nM. For `COc1ccc(S(=O)(=O)N2CCN(c3nc(C4C[C@@H]5CC[C@H]4C5)no3)CC2)cc1` (stereo partly drawn) [Cmpd190, 3-((1S,4R)-bicyclo[2.2.1]heptan-2-yl)-5-(4-((4-methoxyphenyl)sulfonyl)piperazin-1-yl)-1,2,4-oxadiazole], the EC50 was 215 nM. In the case of `O=c1[nH]c2cc(S(=O)(=O)N3CCN(c4nc(Cc5cccc(Cl)c5)no4)CC3)ccc2o1` [Cmpd077, 5-{4-[3-(3-Chloro-benzyl)-[1,2,4]oxadiazol-5-yl]-piperazine-1-sulfonyl}-3H-benzooxazol-2-one], the EC50 is reported as 139 nM. Compound `COc1ccc(S(=O)(=O)N2CCN(c3nc(Cc4ccc(Cl)cc4)no3)CC2)cc1` [Cmpd052, 1-[3-(4-Chloro-benzyl)-[1,2,4]oxadiazol-5-yl]-4-(4-methoxy-benzenesulfonyl)-piperazine] has an EC50 of 24 nM. `O=S(=O)(c1ccc(OC(F)F)cc1)N1CCN(c2nc(C(F)(F)c3ccc(F)cc3)no2)CC1` [Cmpd148, 1-{3-[Difluoro-(4-fluoro-phenyl)-methyl]-[1,2,4]oxadiazol-5-yl}-4-(4-difluoromethoxy-benzenesulfonyl)-piperazine] gave an EC50 of 34 nM.

Same assay, conditions: toxicity inhibition (LDH) in M17_3SYN cells challenged with 6 mM paraquat, 2 days; read-out: SYN EC50
`CC(C)Oc1ccc(S(=O)(=O)N2CCN(c3nc(Cc4cccc(F)c4)no3)CC2)cc1` [Cmpd096, 3-(3-Fluorobenzyl)-5-(4-((4-isopropoxyphenyl)sulfonyl)piperazin-1-yl)-1,2,4-oxadiazole] showed an EC50 of 289 nM.
